Literature values as cited in patent US6906044B2, “Regeneration of articular cartilage damaged by grade I and II osteoarthritis by means of the intraarticular application of a mixture of sodium hyaluronate and chondroitin sulfate in a gel vehicle” (Alcon, Inc., priority 2001, dated 2005).

System: injured knees of the horses
Settings: observed by veterinarians at racetracks

sodium hyaluronate
reaction in injured knees: beneficial reaction
